From patent US12415785B2, “Compound modulators of sting” (CTXT PTY LTD, priority 2019, dated 2025)
pEC50, pKd: −log10 of the molar value.

Legend:
[1] = molecular target: human STING (WT) (Homo sapiens (Human), UniProt Q86WV6, H232R); assay: Surface plasmon resonance (SPR), STING (WT); type: binding; settings: biotinylated STING on streptavidin chip, 8° C.
Method: Biophysical experiments were performed with three different recombinant human STING protein variants designated according to allelic nomenclature of Yi et al., (2013). Codon optimized DNA sequences (for expression in Escherichia coli) encoding amino acid residues 149 to 345 (Swiss Prot Q86WV6) of human STING (WT), human STING (HAQ) and human STING (R232H) were synthesised by GenScript USA Inc (Piscataway, New Jersey, USA). These were ligated into a modified pET43a E. coli expression vector designed to encode N-terminal His tag followed by tobacco etch virus protease (TEV) cleavage site and a STING gene sequence. The resulting protein sequences for the three allelic variants are listed below:
Binding interactions of ligands with STING proteins were quantified using Surface Plasmon Resonance (SPR) with a minimally biotinylated STING protein immobilized on a streptavidin chip surface. […] Minimal biotinylation of purified huSTING proteins was performed using a previously described methodology (Chhabra 2012). Briefly, approximately 20 nmol of recombinant STING protein in 1×TBS buffer (25 mM Tris-HCl, pH 7.5, 150 mM NaCl, 5 mM DTT) was mixed with of EZ-Link™ Sulfo-NHS-LC-LC-Biotin (Thermofisher Scientific, cat #21338) at a molar ratio of 1 to 0.6 and incubated on ice for 2 hours. To remove any unreacted biotin reagent, protein/biotin mixture was passed through a Superdex 75 (10/300 GL) column equilibrated with 10 mM HEPES, pH7.4, 150 mM NaCl, 5 mM DTT, 5%[v/v] glycerol. A protein peak containing biotinylated huSTING protein was collected and stored in aliquots at −80° C.
Streptavidin was simultaneously immobilized in all four channels of a CM5 sensor chip docked in a Biacore instrument (either Biacore S200 or Biacore T200, GE Healthcare) as described previously (Zender 2013). Minimally biotinylated STING protein was captured onto a streptavidin coated chip surface at 8° C. in SPR binding buffer (50 mM HEPES, pH 7.4, 150 mM NaCl, 2%[v/v] DMSO) by gradually injecting in a single channel at a constant flow-rate of 2 μL/min until desired capture level was achieved, typically 3000 to 7000 RU (1 RU=1 pg/mm^2).
All binding experiments were performed at 8° C. in SPR binding buffer. To determine binding affinity, compound interaction with immobilized STING protein was analysed using dose-response experiments. Fresh 10 mM DMSO solutions of compound were diluted directly into SPR binding buffer typically to a concentration of 50 μM and then further diluted 2-fold or 3-fold aiming for either a 5- or 7-point concentration series range. Each ligand concentration series was injected at a constant flow rate of 60 μL/min with a 90 second association and a 180 second dissociation time. These were modified for compounds with longer residence times, so that curves could reach steady-state, or so that compound would be fully dissociated before the subsequent injection.
Scrubber 2 (www.biologic.com.au) was utilized for data processing, where signals were referenced against the blank surface (streptavidin+D-biotin) and further corrected for DMSO refractive index change and then “double-referenced” using a buffer-blank injection (Papalia 2006). Responses were fitted to either a 1:1 steady-state affinity model or a 1:1 kinetic model (that included a mass-transport component), available within Scrubber.

[2] = molecular target: human HAQ isoform of STING (THP-1 STING Lucia ISG cells) (Homo sapiens (Human), UniProt Q86WV6, G230A/H232R/R293Q/R71H); assay: THP-1 STING Lucia ISG reporter cell line assay; type: cell-based; settings: 24 h incubation, QUANTI-Luc luminescence
Method: (§1) THP-1 STING Lucia ISG cells (InvivoGen #thpI-isg) were cultured in RPMI-1640 containing 2 mM L-glutamine, 25 mM HEPES, 100 μg/mL Normocin (InvivoGen) and 10% heat-inactivated FBS. Cells were seeded at a density of 7×10^5 cells/mL, maintained at 37° C./5% CO2, and passaged every 3-4 days. Selection pressure was maintained by the addition of 100 μg/mL Zeocin every second passage.
(§2) Assay conditions: cells were harvested and resuspended at a concentration of 5×10^5 cells/mL in fresh growth media. Of this cell preparation 20 μL per well was dispensed into 384 well cell culture plates (Greiner, #781098X) and incubated at 37° C./5% CO2 for 2 hours. Concentration Response Curves (commonly 11 doses) were prepared by 2.5 fold serial dilution starting from 10 mM compound stock solution in DMSO. Compound dilutions were transferred into the cell culture plates using a pintool (0.1 μL transfer), control wells were matched for DMSO. Positive control wells received ML RR—S2 CDA (Med Chem Express HY12885B) in 5 μL of media to a final concentration of 40 μM. All other wells received additional 5 μL of media only to equalise volume. The plates were incubated for 24 h at 37° C./5% CO2.
(§3) For the detection step, QUANTI-Luc (InvivoGen #rep-qlc1) was prepared according to manufacturer's instruction and 10 μL were added per well to the culture plates. Plates were shaken for ten seconds on an orbital shaker and left in the dark at room temperature for two minutes, before luminescence was read on a Perkin Elmer Envision plate reader.
(§4) Data analysis: Luminescence raw data was normalised % activity relative to the signal of the positive control wells and negative control wells which were not treated with compound. The following formula was used to calculate normalised % activity from raw signals: % activity=(sample−negative)/(positive−negative)
(§5) The THP-1 STING Lucia ISG cell EC50 provides an assessment of activity at the human HAQ isoform of STING. For assessing compound activity against the WT human STING isoform, an equivalent method was conducted where the cells used were THP-1-Dual KI-hSTING-R232 (InvivoGen #thpd-r232).

[3] = molecular target: WT human STING isoform (THP-1-Dual KI-hSTING-R232 cells) (Homo sapiens (Human), UniProt Q86WV6, H232R); assay: THP-1-Dual KI-hSTING-R232 reporter cell line assay; type: cell-based; settings: 24 h incubation, QUANTI-Luc luminescence
Method: as §1, §2, §3, §4, §5

human STING (WT), sequence (Q86WV6 other isoform, or with tags, fused parts or gaps, stated change not applied): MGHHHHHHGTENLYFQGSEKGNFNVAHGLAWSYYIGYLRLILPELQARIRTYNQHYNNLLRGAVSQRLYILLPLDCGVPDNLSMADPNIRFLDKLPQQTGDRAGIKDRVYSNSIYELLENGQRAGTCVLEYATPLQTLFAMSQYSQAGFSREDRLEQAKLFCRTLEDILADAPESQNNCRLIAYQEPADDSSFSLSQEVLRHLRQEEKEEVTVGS
human HAQ isoform of STING (THP-1 STING Lucia ISG cells), sequence (Q86WV6 whole entry R71H/G230A/H232R/R293Q, canonical isoform): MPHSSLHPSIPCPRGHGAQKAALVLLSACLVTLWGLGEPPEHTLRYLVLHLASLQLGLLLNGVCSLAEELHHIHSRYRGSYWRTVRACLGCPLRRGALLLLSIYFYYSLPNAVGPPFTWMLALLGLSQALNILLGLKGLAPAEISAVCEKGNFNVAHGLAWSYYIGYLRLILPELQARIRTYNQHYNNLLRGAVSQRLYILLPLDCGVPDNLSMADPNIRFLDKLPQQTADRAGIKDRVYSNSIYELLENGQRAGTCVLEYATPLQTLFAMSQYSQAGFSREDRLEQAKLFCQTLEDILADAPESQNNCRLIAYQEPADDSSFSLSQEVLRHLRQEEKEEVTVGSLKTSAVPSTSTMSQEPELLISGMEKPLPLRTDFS
WT human STING isoform (THP-1-Dual KI-hSTING-R232 cells), sequence (Q86WV6 whole entry H232R, canonical isoform): as the sequence (Q86WV6 whole entry R71H/G230A/H232R/R293Q, canonical isoform) above, with H71R, A230G, Q293R counted along it

| pKd [1] | pEC50 [2] | pEC50 [3] | Structure (SMILES) |
| --- | --- | --- | --- |
| 3.90 | 4.41 | 4.54 | COc1c(C(N)=O)ccc2c1nc(-c1cnccc1C(=O)O)n2CCn1c(-c2cnccc2C(=O)O)nc2c(OC)c(C(N)=O)ccc21 [Example 30, 3,3′-(Ethane-1,2-diylbis(5-carbamoyl-4-methoxy-1H-benzo[d]imidazole-1,2-diyl))diisonicotinic acid] |
| 5.82 | 6.13 | 6.08 | COc1c(C(N)=O)ccc2c1nc(-c1c(F)cc(F)cc1C(=O)O)n2CCn1c(-c2c(F)cc(F)cc2C(=O)O)nc2c(OC)c(C(N)=O)ccc21 [Example 16, 2,2′-(Ethane-1,2-diylbis(5-carbamoyl-4-methoxy-1H-benzo[d]imidazole-1,2-diyl))bis(3,5-difluorobenzoic acid)] |
| 4.40 | 6.04 | 6.03 | COc1c(C(N)=O)ccc2c1nc(-c1ccccc1-c1nn[nH]n1)n2CCn1c(-c2ccccc2-c2nn[nH]n2)nc2c(OC)c(C(N)=O)ccc21 [Example 6, 1,1′-(Ethane-1,2-diyl)bis(2-(2-(2H-tetrazol-5-yl)phenyl)-4-methoxy-1H-benzo[d]imidazole-5-carboxamide)] |
| 4.95 | 6.25 | 6.42 | COc1c(C(N)=O)ccc2c1nc(-c1c(F)cc(F)cc1-c1n[nH]c(=O)o1)n2CCn1c(-c2c(F)cc(F)cc2-c2n[nH]c(=O)o2)nc2c(OC)c(C(N)=O)ccc21 [Example 44, 1,1′-(Ethane-1,2-diyl)bis(2-(2,4-difluoro-6-(5-oxo-4,5-dihydro-1,3,4-oxadiazol-2-yl)phenyl)-4-methoxy-1H-benzo[d]imidazole-5-carboxamide)] |
| 5.75 | 6.24 | 6.36 | COc1c(C(N)=O)ccc2c1nc(-c1c(F)cc(F)cc1-c1nn[nH]n1)n2CCn1c(-c2c(F)cc(F)cc2-c2nn[nH]n2)nc2c(OC)c(C(N)=O)ccc21 [Example 43, 1,1′-(Ethane-1,2-diyl)bis(2-(2,4-difluoro-6-(2H-tetrazol-5-yl)phenyl)-4-methoxy-1H-benzo[d]imidazole-5-carboxamide)] |
| 4.52 | 4.61 | 5.19 | NC(=O)c1ccc2c(c1)nc(-c1ccccc1-c1nn[nH]n1)n2CCn1c(-c2ccccc2-c2nnn[nH]2)nc2cc(C(N)=O)ccc21 [Example 5, 2-(2-(1H-Tetrazol-5-yl)phenyl)-1-(2-(2-(2-(2H-tetrazol-5-yl)phenyl)-5-carbamoyl-1H-benzo[d]imidazol-1-yl)ethyl)-1H-benzo[d]imidazole-5-carboxamide] |
| 3.15 | < 4.40 | < 4.40 | NC(=O)c1ccc2c(c1)nc(-c1cc(Br)ccc1C(=O)O)n2CCn1c(-c2cc(Br)ccc2C(=O)O)nc2cc(C(N)=O)ccc21 [Example 3, 2,2′-(Ethane-1,2-diylbis(5-carbamoyl-1H-benzo[d]imidazole-1,2-diyl))bis(4-bromobenzoic acid)] |
| 6.44 | 6.76 | 7.51 | COc1c(C(N)=O)ccc2c1nc(-c1c(F)cc(Cl)cc1-c1n[nH]c(=O)o1)n2CCn1c(-c2c(F)cc(Cl)cc2-c2n[nH]c(=O)o2)nc2c(OC)c(C(N)=O)ccc21 [Example 50, 1,1′-(Ethane-1,2-diyl)bis(2-(4-chloro-2-fluoro-6-(5-oxo-4,5-dihydro-1,3,4-oxadiazol-2-yl)phenyl)-4-methoxy-1H-benzo[d]imidazole-5-carboxamide)] |
| 4.13 | < 4.40 | < 4.40 | COc1c(C(N)=O)ccc2c1nc(-c1ccc(Cl)cc1C(=O)O)n2C/C=C/Cn1c(-c2ccc(Cl)cc2C(=O)O)nc2c(OC)c(C(N)=O)ccc21 [Example 34, (E)-6,6′-(But-2-ene-1,4-diylbis(5-carbamoyl-4-methoxy-1H-benzo[d]imidazole-1,2-diyl))bis(3-chlorobenzoic acid)] |
| 4.24 | < 4.40 | < 4.40 | COc1c(C(N)=O)ccc2c1nc(-c1cccc(Br)c1C(=O)O)n2CCn1c(-c2cccc(Br)c2C(=O)O)nc2c(OC)c(C(N)=O)ccc21 [Example 36, 6,6′-(Ethane-1,2-diylbis(5-carbamoyl-4-methoxy-1H-benzo[d]imidazole-1,2-diyl))bis(2-bromobenzoic acid)] |
| 7.37 | 5.60 | 5.61 | COc1c(C(N)=O)ccc2c1nc(-c1c(Cl)cccc1-c1nn[nH]n1)n2CCn1c(-c2c(Cl)cccc2-c2nn[nH]n2)nc2c(OC)c(C(N)=O)ccc21 (single isomer, unassigned) [Example 23, 1,1′-(Ethane-1,2-diyl)bis(2-(2-chloro-6-(2H-tetrazol-5-yl)phenyl)-4-methoxy-1H-benzo[d]imidazole-5-carboxamide)] |
| 4.53 | 5.17 | 5.49 | COc1c(C(N)=O)ccc2c1nc(-c1c(F)cc(Cl)cc1Br)n2CCn1c(-c2c(F)cc(Cl)cc2Br)nc2c(OC)c(C(N)=O)ccc21 [Example 45, 1,1′-(Ethane-1,2-diyl)bis(2-(2-bromo-4-chloro-6-fluorophenyl)-4-methoxy-1H-benzo[d]imidazole-5-carboxamide)] |
| 4.40 | 6.11 | 6.15 | COc1c(C(N)=O)ccc2c1nc(-c1ccc(Cl)cc1-c1nn[nH]n1)n2CCn1c(-c2ccc(Cl)cc2-c2nn[nH]n2)nc2c(OC)c(C(N)=O)ccc21 [Example 9, 1,1′-(Ethane-1,2-diyl)bis(2-(4-chloro-2-(2H-tetrazol-5-yl)phenyl)-4-methoxy-1H-benzo[d]imidazole-5-carboxamide)] |
| 5.97 | 6.08 | 6.17 | COc1c(C(N)=O)ccc2c1nc(-c1c(F)cc(Cl)cc1C(=O)O)n2CCn1c(-c2c(F)cc(Cl)cc2C(=O)O)nc2c(OC)c(C(N)=O)ccc21 [Example 11, 2,2′-(ethane-1,2-diylbis(5-carbamoyl-4-methoxy-1H-benzo[d]imidazole-1,2-diyl))bis(5-chloro-3-fluorobenzoic acid)] |
| – | < 4.40 | < 4.40 | COc1c(C(N)=O)ccc2c1nc(-c1ccc(Cl)c(Cl)c1-c1nn[nH]n1)n2CCn1c(-c2ccc(Cl)c(Cl)c2-c2nn[nH]n2)nc2c(OC)c(C(N)=O)ccc21 [Example 37, 1,1′-(Ethane-1,2-diyl)bis(2-(3,4-dichloro-2-(2H-tetrazol-5-yl)phenyl)-4-methoxy-1H-benzo[d]imidazole-5-carboxamide)] |
